Experimental data taken from patent US20120270917A1 (The Trustees of the University of Pennsylvania, priority 2009, published 2012).
Where a name gives a salt, the structure may show the parent alone.

molecular target: T1, AM2 (Influenza A virus, UniProt P0DOF5); experiment: cell-based; settings: Oocytes; 100 μM, 2 min; mean ± SE; read-out: AM2 wt % of inhibition by 100 μM 2 min
T1 construct: expressed in transfected cells
T1 sequence (P0DOF5 whole entry): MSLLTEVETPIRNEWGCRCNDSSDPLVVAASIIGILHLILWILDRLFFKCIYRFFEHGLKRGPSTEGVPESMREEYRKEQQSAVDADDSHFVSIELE

| Compound | inhibition at 100 µM [%] |
| --- | --- |
| NC12CC3CC(CC(C3)C1)C2 [Amantadine, reference compound] | 90.8 ± 2.5 |
| Cl.NC1CCC2(CC1)C1CC3CC(C1)CC2C3 (stereo not drawn) [Compound S15, (1r, 3r,5r,7r)-spiro[adamantane-2,1′-cyclohexan]-4′-aminium chloride] | 89.1 ± 1.3 |
| CC(N)C12CC3CC(CC(C3)C1)C2 (stereo not drawn) [Rimantadine, reference compound] | 91.2 ± 0.9 |

same assay, conditions: Table 2

| Compound | IC50 [µM] |
| --- | --- |
| NC1(C(F)(F)F)C2CC3CC(C2)CC1C3 (stereo not drawn) [Compound S6] | 10.1 |
| OC1(C(F)(F)F)C2CC3CC(C2)CC1C3 (stereo not drawn) [Compound S8] | 13.8 |
| O=C1C2CC3CC(C2)CC1C3 [Compound S13] | 28.8 |

same assay, conditions: concentration not given; Table 2

| Compound | AM2 % inhibition at μM [%] |
| --- | --- |
| Cl.NC1C[C@@H]2C[C@@H]3CC1[C@H](C2)C3 (stereo partly drawn) [Compound S1, (2S,3aS,5R)-octahydro-1H-2,5-methanoinden-7-aminium chloride] | 94.2 |
| Cl.NC12CC3CCC(CC(C3)C1)C2 [Compound S2, tricyclo[4.3.1.13,8]undecan-1-aminium chloride] | 81.3 |
| O=[N+]([O-])C1C2CC3CC(C2)CC1C3 (stereo not drawn) [Compound S3] | 85.6 |
| CC1(O)C2CC3CC(C2)CC1C3 (stereo not drawn) [Compound S4] | 85.8 |
| CC1(N)C2CC3CC(C2)CC1C3 (stereo not drawn) [Compound S5] | 65.0 |
| NC1(C(F)(F)F)C2CC3CC(C2)CC1C3 (stereo not drawn) [Compound S6] | 86.3 |
| NS(=O)(=O)NC1C2CC3CC(C2)CC1C3 (stereo not drawn) [Compound S7] | 81.6 |
| OC1(C(F)(F)F)C2CC3CC(C2)CC1C3 (stereo not drawn) [Compound S8] | 82.9 |
| O=[N+]([O-])C12CC3CC(CC(C3)C1)C2 [Compound S9] | 87.2 |
| Cl.NC12CCC3CC(CC(C3)C1)C2 [Compound S12] | 92 |
| O=C1C2CC3CC(C2)CC1C3 [Compound S13] | 69.6 |

same assay, conditions: read-out: AM2 % inhibition at 100 uM; 100 uM; Table 1

| Compound | inhibition at 100 µM [%] |
| --- | --- |
| NC12CC3CC(C1)CC(O)(C3)C2 [Compound 38] | 87 |
| N=C(N)NC12CC3CC(CC(C3)C1)C2 [Compound 39, 1-(adamantyl)guanidine] | 97 |
| CC(NC(=N)N)C12CC3CC(CC(C3)C1)C2 (stereo not drawn) [Compound 40] | 94 |
| Cl.Cl.N=C(N)NC(=N)NC12CC3CC(CC(C3)C1)C2 [Compound 41] | 70 |
| NOC12CC3CC(CC(C3)C1)C2 [Compound 42, O-adamantylhydroxylamine] | 87 |
| Cc1nc[nH]c1/C=N/OC12CC3CC(CC(C3)C1)C2 [Compound 43, 5-Methyl-3H-imidazole-4-carbaldehyde O-adamantan-1-yl-oxime] | 81 |
| N=C(N)C12CC3CC(CC(C3)C1)C2 [Compound 44, Adamantane amidine hydrochloride] | 70 |
| NC1CSC2(SC1)C1CC3CC(C1)CC2C3 (stereo not drawn) [Compound 45] | 64 |
| N=C(NO)C12CC3CC(CC(C3)C1)C2 [Compound 46, N-hydroxyadamantanecarboximidamide] | 72.3 |
| C1NC2CC3CC1CC(C3)C2.Cl [Compound 47, 4-Azatricyclo[4.3.1.1^3,8]undecan hydrochloride] | 83.8 |
| NC(=O)C12CC3CC(CC(C3)C1)C2 [Compound 48] | 74.9 |
| O=CC12CC3CC(CC(C3)C1)C2 [Compound 49, 1-adamantanecarboaldehyde] | 65.1 |
| O=C1C2CC3CC(C2)CC1C3 [Compound 50] | 69.6 |
| O=C1C2CC3CC1CC(C2)C3=O [Compound 52, 2,6-diadamantone] | 59.1 |
| OC1(C(F)(F)F)C2CC3CC(C2)CC1C3 (stereo not drawn) [Compound 53, 2-trifluoromethyl-2-adamantol] | 82.9 |
| O=[N+]([O-])C12CC3CC(CC(C3)C1)C2 [Compound 54, 1-nitroadamantane] | 87.2 |
